According to article PMC12519996, “Copper pyrithione complexes with endoplasmic reticulum localisation showing anticancer activity via ROS generation” (Chemical Science, 2025):
Values belong to the compound of their own block, whether it stands above or below them.

Legend:
[1] = tested on: breast cancer MCF-7 cells; test: Cell viability (MTT) assay, MCF-7; assay type: cell-based, human; settings: for IC50: 24 h incubation, n = 9, MTT, read-out: IC50 ± SD, MCF-7; for Selectivity index (SI) against MCF-7: IC50 against non-cancerous ARPE-19 cells divided by IC50 against MCF-7
Protocol: (§1) The potential therapeutic activity of the copper pyrithione complexes was determined by screening complexes for 24 hours against human cancer cell lines MCF-7 (breast) and MIA PaCa-2 (pancreatic), alongside a non-cancerous epithelial cell line ARPE-19 (retinal). As controls, cisplatin and CuCl2·2H2O were also included in the screen (Table 2). […]
(§2) All cell lines were maintained as monolayers in either T75 or T175 flasks in complete high glucose DMEM media (supplemented with 10% Fetal Bovine Serum, 1% sodium pyruvate, 1% L-glutamine, 1% penstrep). All cell lines were seeded at 4000 cells/well in a clear-bottom 96-well plate and incubated for 24 h for cells to adhere. The cells were treated with varying concentrations of each complex and left to incubate for a further 24 h. MTT reagent (20 mL, 5 mg/mL) was added to each well, and the plates were incubated for 3 h. The media was removed by aspiration, followed by the addition of DMSO (150 mL) to solubilise the formazan. The absorbance was read using a Clariostar plate reader at 540 nm. Results were plotted on a logarithmic scale, and the half maximal inhibitory concentration (IC 50) was determined from a triplicate of triplicate repeats and reported as an IC 50 ± Standard Deviation (SD). […]

[2] = tested on: pancreatic cancer MIA PaCa-2 cells; test: Cell viability (MTT) assay, MIA PaCa-2; assay type: cell-based, human; settings: for IC50: 24 h incubation, n = 9, MTT, read-out: IC50 ± SD, MIA PaCa-2
Protocol: as §1, §2

[3] = tested on: non-cancerous retinal epithelial ARPE-19 cells; test: Cell viability (MTT) assay, ARPE-19; assay type: cell-based; settings: 24 h incubation, n = 9, MTT; read-out: IC50 ± SD, ARPE-19
Protocol: as §1, §2

[4] = Thermodynamic stability constant, Benesi-Hildebrand UV-vis titration; assay type: physicochemical; settings: Benesi-Hildebrand method, MeCN:H2O 1:1, absorbance at 320 nm
Protocol: (§3) Where [M] is concentration of copper, [L] is concentration of the activated ligand, b is the pathlength, which was kept at 1 cm, ɛ is molar extinction coefficient of the complex, A is absorbance and K = binding constant.
All cell lines were maintained as monolayers in either T75 or T175 flasks in complete high glucose DMEM media (supplemented with 10% Fetal Bovine Serum, 1% sodium pyruvate, 1% L-glutamine, 1% penstrep). All cell lines were seeded at 4000 cells/well in a clear-bottom 96-well plate and incubated for 24 h for cells to adhere. The cells were treated with varying concentrations of each complex and left to incubate for a further 24 h. MTT reagent ([…], 5 mg/mL) was added to each well, and the plates were incubated for 3 h. The media was removed by aspiration, followed by the addition of DMSO ([…]) to solubilise the formazan. The absorbance was read using a Clariostar plate reader at 540 nm. Results were plotted on a logarithmic scale, and the half maximal inhibitory concentration (IC 50) was determined from a triplicate of triplicate repeats and reported as an IC 50 ± Standard Deviation (SD).

[5] = tested on: MCF-7 cells; test: Reactive oxygen species study, H2DCFDA stain (Method 1); assay type: cell-based, human; settings: complex at 10 μM for 1 h, H2DCFDA 20 μM for 30 min
Description: To understand a potential mechanism of action, we determined production of reactive oxygen species (ROS) using fluorescent microscopy assays. ROS production is a common mode of therapeutic activity of copper complexes.[43] […] In the presence of ROS, H2DCFDA converts to a fluorescent dye that can be observed using microscopy. […] By contrast, control cells with no pyrithione complex added show little fluorescence (Fig. 6A). […] (Fig. 6B), [Cu(6-Me-PT)2] (Fig. 6C), and [Cu(3-OMe-PT)2] […] (Fig. 6D) was weaker. This variation correlates well with the cytotoxicity data in Table 2, with the methyl and methoxy complexes also showing the highest activity.
Next, cells were dosed at two concentrations of pyrithione complex to determine whether production of ROS is dose-dependent. Results for [Cu(3-OMe-PT)2] are shown at 1 μM (Fig. 6E) and 10 μM (Fig. 6F) after 1 hour; results for other complexes are shown in the SI (Fig. S11 and 12). In all cases, the fluorescence intensity increases in assays with 10 μM complex, compared to assays with 1 μM complex, supporting a mode of action where increasing complex concentration leads to increased ROS generation and higher cytotoxicity. […]
absorbance and K = binding constant. […]
The cells were treated with varying
Results were plotted on a
Reactive oxygen species study:
Method 1: 2′,7′-dichlorodihydrofluorescein diacetate (H 2DCFDA) stain: […]
untreated sample (negative control). After this time, 2′,7′-dichlorodihydrofluorescein diacetate […]
Stock solutions of the compounds (5 mM) were made

[6] = tested on: MCF-7 cells; settings: dosed, fixed
Protocol: as §3
as §2, with “MTT reagent (20 mL, 5 mg/mL) was added to each well, and the plates were incubated for 3 h. The media was removed by aspiration, followed by the addition of DMSO (150 mL) to solubilise the formazan.” left out
MCF-7 cells were seeded into a black 96 well optical bottom plate at 8000 cells/well in phenol-red free complete DMEM medium (100 μl), and incubated at 37 °C and 5% CO 2 for 24 h. […] Cells were gently washed with PBS (2 x 100 µl), and 100 µl of PBS was added to each well before reading.
Fluorescence images were obtained using Zeiss Axio Observer 7 inverted microscope at excitation at 488 nm and emission at 509 nm, and analysed using ZEN 3.8 software. […]

[7] = tested on: MCF-7 (breast) cancer cell line; settings: cited from earlier work
[8] = tested on: HepG2 (liver) cancer cell line; settings: cited from earlier work
[9] = tested on: U266 (myeloma) cancer cell line; settings: cited from earlier work
[10] = tested on: NCI-H929 (myeloma) cancer cell line; settings: cited from earlier work
[11] = Solubility by observation; settings: aqueous and organic solvents, qualitative
[12] = Lipophilicity, octanol:water shake-flask method with ICP-OES copper quantification; settings: copper by ICP-OES, triplicate
Protocol: Due to the low aqueous solubility of [Cu(PT)2], inductively coupled plasma-optical emission spectroscopy (ICP-OES) was used to quantify copper in the octanol and water layers (see SI).
General procedure for logP measurement:
Stock solutions (10 mM) of the tested copper complexes were prepared in DMSO solvent.
Water and octanol were saturated with the other solvent to match the final shake-flask
conditions. Next, log P values were determined using the shake-flask method. For each
complex, 60 µl of the stock solution was added to a mixture of 3 ml water and 3 ml n-octanol.
The solution was shaken by hand and vortexed. The layers were separated and analysed by
inductively coupled plasma optical emission spectroscopy (ICP-OES). For the octanol layer,
100 µl was collected in a vial and the solvent was evaporated under high vacuum. Next, the
residue was dissolved in 100 µl methanol and further diluted with 10 ml of 5% aqueous nitric
acid (HNO 3) solution for digestion. For the water layer, 1 ml of solution was diluted with 9 ml
of 5% aqueous HNO 3 solution. After analysis through ICP-OES technique, the amount of
copper in each sample was determined in ppm. To remove background copper, the exact
conditions were repeated in the absence of copper pyrithione complexes and the values were
subtracted from the measured values. The partition coefficient (P) and respective logP values

Compound: N.N.[Cl][Pt][Cl] [Cisplatin, reference compound]
IC50 [1]: 40000 ± 1000 nM | IC50 [2]: > 100000 nM | Selectivity index (SI) against MIA PaCa-2 ([2]; IC50 against non-cancerous ARPE-19 cells divided by IC50 against MIA PaCa-2): < 0.13 | IC50 [3]: 13000 ± 100 nM

IC50 [1]: > 100000 nM | IC50 [2]: > 100000 nM
Compound: [Cl][Cu][Cl] [CuCl2·2H2O, reference compound]
IC50 [3]: 83000 ± 2000 nM

Compound: Cc1cccn([O-])c1=S.Cc1cccn([O-])c1=S.[Cu+2] [[Cu(3-Me-PT)2]]
IC50 [1]: 347 ± 6 nM | Selectivity index (SI) against MCF-7 [1]: 6.34 | IC50 [2]: 7100 ± 200 nM | IC50 [3]: 2200 ± 100 nM

Log(K/(M^−2)) [4]: 7.560 ± 0.002 | IC50 [1]: 220 ± 10 nM | IC50 [2]: 2700 ± 100 nM
Compound: COc1ccc[n+]([O-])c1[S][Cu][S]c1c(OC)ccc[n+]1[O-] [[Cu(3-OMe-PT)2]]
Selectivity index (SI) against MCF-7 [1]: 3.95 | IC50 [3]: 870 ± 40 nM | ROS production, H2DCFDA fluorescence [5]: brightest fluorescence

Compound: [Cu+2].[O-]n1ccc(C(F)(F)F)cc1=S.[O-]n1ccc(C(F)(F)F)cc1=S [[Cu(4-CF3-PT)2]]
IC50 [1]: 8900 ± 300 nM | IC50 [2]: 21600 ± 400 nM | IC50 [3]: 17300 ± 400 nM

Compound: Cc1cc[n+]([O-])c([S][Cu][S]c2cc(C)cc[n+]2[O-])c1 [[Cu(4-Me-PT)2]]
IC50 [1]: 690 ± 20 nM | IC50 [2]: 8500 ± 300 nM | IC50 [3]: 1800 ± 100 nM

Compound: Cc1cccc([S][Cu][S]c2cccc(C)[n+]2[O-])[n+]1[O-] [[Cu(6-Me-PT)2]]
Log(K/(M^−2)) [4]: 7.498 ± 0.005 | IC50 [1]: 570 ± 10 nM | IC50 [2]: 2100 ± 100 nM | IC50 [3]: 570 ± 30 nM | ROS production, H2DCFDA fluorescence [5]: brightest fluorescence

Compound: On1ccccc1=S.On1ccccc1=S.[Cu] [[Cu(PT)2], copper pyrithione]
Log(K/(M^−2)) [4]: 7.528 ± 0.004 | IC50 [1]: 270 ± 10 nM | IC50 [2]: 2220 ± 80 nM | IC50 [3]: 410 ± 50 nM | ROS production, H2DCFDA fluorescence [5]: brightest fluorescence | ROS levels compared to menadione, CellROX stain [6]: lower levels of ROS | IC50 against MCF-7 [7]: submicromolar | IC50 against HepG2 [8]: submicromolar | IC50 against U266 [9]: submicromolar | IC50 against NCI-H929 [10]: submicromolar | Solubility (by observation) [11]: low solubility | Log P [12]: 2.34
